Reference: patent US20070249690A1, “N-[2-(4-Pyridinyl)Ethyl]Benzamide Derivatives as Fungicides” (priority 2004, published 2007)

Tests used:
[1] = tested on: Botrytis cinerea; assay: In vivo test on Botrytis cinerea (cucumber grey mould), cucumber plants; settings: 330 ppm; for effectiveness on Botrytis cinerea: comparison compounds of WO 01/11965
Protocol: The active ingredient tested is prepared by potter homogenisation in a concentrated suspension type formulation at 100 g/l. This suspension is then diluted with water to obtain the desired active material concentration.
Cucumber plants (Marketer variety) in starter cups, sown on a 50/50 peat soil-pozzolana substrate and grown at 18-20° C., are treated at the cotyledon Z11 stage by spraying with the aqueous suspension described above. Plants, used as controls, are treated with an aqueous solution not containing the active material.
After 24 hours, the plants are contaminated by depositing drops of an aqueous suspension of Botrytis cinerea spores (150,000 spores per ml) on upper surface of the leaves. The spores are collected from a 15-day-old culture and are suspended in a nutrient solution composed of: • 20 g/L of gelatin • 50 g/L of cane sugar • 2 g/L of NH4NO3 • 1 g/L of KH2PO4
The contaminated cucumber plants are settled for 5/7 days in a climatic room at 15-11° C. (day/night) and at 80% relative humidity.
Grading is carried out 5/7 days after the contamination, in comparison with the control plants. Under these conditions, good (at least 50%) or total protection is observed at a dose of 330 ppm with the following compounds: 3.

[2] = tested on: Alternaria brassicae; assay: In vivo test on Alternaria brassicae (leaf spot of crucifers), radish plants; settings: 330 ppm, comparison compounds of WO 01/11965
Protocol: The active ingredient tested is prepared by potter homogenisation in a concentrated suspension type formulation at 100 g/l. […] Radish plants (Pernot variety) in starter cups, sown on a 50/50 peat soil-pozzolana substrate and grown at 18-20° C., are treated at the cotyledon stage by spraying with the aqueous suspension described above. Plants, used as controls, are treated with an aqueous solution not containing the active material. After 24 hours, the plants are contaminated by spraying them with an aqueous suspension of Alternaria brassicae spores (40,000 spores per cm^3). The spores are collected from a 12 to 13 days-old culture. The contaminated radish plants are incubated for 6-7 days at about 18° C., under a humid atmosphere. Grading is carried out 6 to 7 days after the contamination, in comparison with the control plants. Under these conditions, good (at least 50%) or total protection is observed at a dose of 330 ppm with the following compounds: 1, 2, 3 and 4.

[3] = tested on: Peronospora parasitica; assay: Efficacy against Peronospora parasitica; format: in vivo; settings: 330 ppm, comparison compound of WO 01/11965

SMILES	effectiveness on Botrytis cinerea [1]	protection (good, at least 50%, or total) ([1]; preventive spray on cucumber plants, grading 5/7 days after contamination, versus control plants)	effectiveness on Alternaria brassicae [2]	efficacy against Peronospora parasitica [3]
CCNC(=O)C(Cc1ncc(C(F)(F)F)cc1Cl)NC(=O)c1ccccc1Br (stereo not shown) [compound 310, N-{1-ethylcarbamoyl-2-[3-chloro-5-(trifluoromethyl)-2-pyridinyl]ethyl}-2-bromobenzamide]	zero effectiveness			
CCNC(=O)C(Cc1ncc(C(F)(F)F)cc1Cl)NC(=O)c1ccc(Cl)cc1 (stereo not shown) [compound 306, N-{1-ethylcarbamoyl-2-[3-chloro-5-(trifluoromethyl)-2-pyridinyl]ethyl}-4-chlorobenzamide]	zero effectiveness			
O=C(NCCc1cc(F)ncc1F)c1ccccc1C(F)(F)F [Compound 3]		at least 50%		
CCNC(=O)C(Cc1ncc(C(F)(F)F)cc1Cl)NC(=O)c1ccccc1 (stereo not shown) [compound 304, N-{1-ethylcarbamoyl-2-[3-chloro-5-(trifluoromethyl)-2-pyridinyl]-ethyl}-benzamide]	zero effectiveness			
CNC(=O)C(Cc1ncc(C(F)(F)F)cc1Cl)NC(=O)c1ccc(-c2ccccc2)cc1 (stereo not shown) [compound 316, N-{1-methylcarbamoyl-2-[3-chloro-5-(trifluoromethyl)-2-pyridinyl]-ethyl}-4-phenylbenzamide]	zero effectiveness		poor effectiveness	
CCNC(=O)C(Cc1ncc(C(F)(F)F)cc1Cl)NC(=O)c1cccc([N+](=O)[O-])c1 (stereo not shown) [compound 307, N-{1-ethylcarbamoyl-2-[3-chloro-5-(trifluoromethyl)-2-pyridinyl]ethyl}-3-nitrobenzamide]	zero effectiveness		poor effectiveness	
CNC(=O)C(Cc1ncc(C(F)(F)F)cc1Cl)NC(=O)c1ccc(OC)cc1 (stereo not shown) [compound 315, N-{1-methylcarbamoyl-2-[3-chloro-5-(trifluoromethyl)-2-pyridinyl]ethyl}-4-methoxybenzamide]	zero effectiveness			
CNC(=O)C(Cc1ncc(C(F)(F)F)cc1Cl)NC(=O)c1ccccc1 (stereo not shown) [compound 314, N-{1-methylcarbamoyl-2-[3-chloro-5-(trifluoromethyl)-2-pyridinyl]ethyl}-benzamide]	zero effectiveness			
O=C(Cc1cccs1)NCc1ncc(C(F)(F)F)cc1Cl [compound 101, N-{[3-chloro-5-(trifluoromethyl)-2-pyridinyl]methyl}-5-thienylacetamide]	no efficacy		poor efficacy	no efficacy
